Measured values reported in PMC8632718, “Novel Assay Platform to Evaluate Intracellular Killing of Mycobacterium tuberculosis: In Vitro and In Vivo Validation” (Frontiers in Immunology, 2021).
Ends that are not written are not given here.

Key:
[1] = Analytical RP-HPLC retention time (correlates with overall hydrophobicity); assay type: physicochemical; set-up: Rt (retention time): unit not given here; conditions: for Rt (retention time): chromatographic measure of hydrophobicity, Waters Acquity UPLC BEH C18 (1.7 µm, 150 × 2.1 mm), flow rate 0.3 ml/min, gradient 2% B 1 min, 2%–100% B 16 min, single peak or first of two 5(6)-Cf isomer peaks; for Rt (retention time), second peak: same column and gradient, second peak due to 5(6)-Cf isomers
Protocol: Purified peptides were analyzed by LC-MS using a Thermo Scientific Q Exactive Focus Hybrid Quadrupole-Orbitrap Mass Spectrometer. For the separation, a Waters Acquity UPLC BEH C18 (1.7 µm, 150 × 2.1 mm) column was used with a flow rate of 0.3 ml/min.
For INH conjugation, representative cell-penetrating (CPP) and antimicrobial peptides (AMP) were chosen. These cationic, amphiphilic peptides are favored in the transportation of various cargos due to their high internalization rate. The used peptide series contains well-known CPPs such as penetratin, transportan, and Tat, frequently studied AMPs such as magainin and buforin, and designed analogs such as Dhvar4, Crot(1-9,38-42), and CM15. Also, a receptor-binding tuftsin analog (OT20), which was reported as a macrophage-targeting peptide, was also applied. […] Mass spectra and RP-HPLC chromatograms are available at https://figshare.com/s/48a023a25068f7658adf, DOI: 10.6084/m9.figshare.16644901. […] To study the internalization rate and intracellular localization, fluorescently labeled analogs were also synthesized. Note that the retention time of Cf-peptide are somewhat higher than unlabeled analogs, and in some cases, two peaks were detected due to the isomeric distribution of 5(6)-Cf molecule.

MonoMac-6 cells = assay type: cell-based, human; conditions: 10 µM Cf-peptide, 2 h, LysoTracker, ImageJ JACoP on merged images
Protocol: Cellular uptake and localization were visualized by confocal laser scanning microscopy. MonoMac-6 cells were seeded 1 day prior to treatment into coverslips (thickness 1, Assistent, Karl Hecht GmbH, Sondheim vor der Rhön, Germany) containing a 24-well plate (Sarstedt, Nümbrecht, Germany) for microscopy studies at a density of 7.5 × 10^4 cells/well, in 1 ml complete DMEM medium. The following day, cells were treated with Cf-peptide at a concentration of 10 µM (diluted in serum-free DMEM medium) for 2 h. Lysosomes were stained by LysoTracker Deep Red (Invitrogen, Waltham, MA, USA) for 30 min, and nuclei were stained by Hoechst 33342 solution (Thermo Scientific, USA). After each step, cells were washed three times with serum-free medium, then cells were fixed by 4% paraformaldehyde for 15 min and mounted to microscopy slides with Mowiol 4-88 (Sigma, Budapest, Hungary). Imaging was performed by a Zeiss LSM-710 system (Carl Zeiss microscopy GmbH, Oberkochen, Germany) with a ×40/1.4 Plan-Apochromat oil immersion objective using lasers with the parameters: Cf peptides λex = 488 nm, λem = 541 nm, nuclei λex = 405 nm, λem = 467 nm (Hoechst 33342), lysosomes λex = 633 nm, λem = 720 nm (LysoTrackerTM Deep Red) or λex = 577 nm, λem = 590 nm (LysoTrackerTM Red DND-99) were used. Zeiss ZEN lite software (Carl Zeiss Microscopy GmbH, Jena, Germany) was used for image processing.
Parallel with flow cytometry measurements, confocal laser scanning microscopy images were also captured in order to assess qualitative information on intracellular localization. LysoTrackerTM Deep Red was used for lysosome and Hoechst 33342 for nuclear staining to distinguish subcellular localization of the Cf-peptide. […] Colocalization of Cf-peptide and LysoTracker may be subjectively identified by the cooccurrence, the simple spatial overlap which combined the contribution of both signals (green and red) when the images of each signal are superimposed (merged, see Supplementary Figure S3 ).
microscopy at the 10 µM Cf-peptide concentration (based on flow cytometry profile), and MonoMac6 cells were incubated for 2 hrs.
the visible differences among localization profiles of the Cf-peptides, we applied greyscale analysis of
the images and the evaluation was carried out on a representative peptide set.
were studied and the treatment, the staining and fixation process were carefully optimized to assess
Laser intensity values were identical in case of all Cf-peptides. ZEN 3.0 blue lite software
was used for image processing and grey scale values were extracted using NIH ImageJ software’s Plot

[2] = system: CALU-1 monolayer / EBC-1 cells; assay type: in vitro ADME, human; conditions: Transwell, 0.4 µm polycarbonate, Cf-peptide apical 10 and 20 µM, 45 min, apical to basolateral; EBC-1 fluorescence read-out
Protocol: EBC-1 lung squamous carcinoma and CALU-1 human lung epidermoid carcinoma were seeded on 24-well plates with Transwell inserts (TW) [Nunc, Sigma polycarbonate microporous membrane, 0.4 µm pore size (growth area 0.412 cm^2)]. Before use, TW inserts were incubated with ICM. On day 1, 300 μl of CALU-1 suspension in complete DMEM medium (8.0 × 10^5 cells) was pipetted onto the surface of the TW apical chamber and 500 μl complete DMEM medium was added to the basolateral side. In order to avoid nonattached cells, after incubation at 37°C for 5–6 h, the apical medium was removed and replaced with fresh complete DMEM medium. […] On day 5, the medium was changed, then Cf-peptide was added to the CALU-1-containing apical side at 10 and 20 µM concentrations, and the system was incubated for 45 min or 3 h (37°C, 5% CO2). The TW chamber was removed after incubation. EBC-1 cells were studied using flow cytometry (BD LSR II).
EBC-1 cells were treated without the presence of the TW inserts as controls (on day 4 prior to treatment, EBC-1 cells (10^5 cells/well in complete DMEM). […]
Figure 7 The penetration ability of Cf-peptides was determined on Transwell bronchial interface, and the penetration rates were quantified by flow cytometry. […] The confluence of CALU-1 monolayer was monitored with CellTracker Green, and after development of stable green fluorescence, cells were imaged in situ. […]

[3] = assay type: in vitro ADME; conditions: rat liver lysosomal homogenate, 37 °C, LC-MS
Protocol: Next, we examined the enzymatic stability of two peptide conjugates in rat liver lysosomal homogenate (see Supplementary Information 2 for the method description). Peptides were dissolved at 0.025 µg/µl concentration then allowed to react with the lysosomal homogenate. Degradation of the conjugates was fast. […]
1.2 Lysosomal degradation studies
Enzymatic stability of INH-Dhvar4 and INH-Penetratin conjugates were assayed in rat liver lysosomal homogenate (protein content was 16.6 µg/µl). Peptides were dissolved in 0.2 M Sodium acetate buffer (pH=5.03) at 0.025 µg/µl concentration and added to the lysosomal homogenate to reach 1 : 1 protein / peptide ratio (37 °C, 600 rpm vortex) . At different time points (5 min, 30 min, 1 h, 6 h, 24 h) the reaction was stopped by the addition of 5 µl formic acid. Sampled were then measured by LC-MS using a Thermo Scientific Q Exactive Focus Hybrid Quadrupole -Orbitrap Mass Spectrometer (Suppl. Figu re 1). For chromatography, a Wa ters Acquity UPLC BEH C18 (1.7 µ, 150 × 2.1 mm) column was used with a flow rate of 300 µL/min applying a gradient elution from 2% to […]
(1 picture or pasted object on this page, not shown here)

| Compound | Rt (retention time) [1] | further results |
| --- | --- | --- |
| N=C(N)NCCC[C@H](NC(=O)[C@H](CCCNC(=N)N)NC(=O)[C@H](CCCNC(=N)N)NC(=O)[C@H](CCC(N)=O)NC(=O)[C@H](CCCNC(=N)N)NC(=O)[C@H](CCCNC(=N)N)NC(=O)[C@H](CCCCN)NC(=O)[C@H](CCCCN)NC(=O)[C@H](CCCNC(=N)N)NC(=O)CNC(=O)[C@@H](N)Cc1ccc(O)cc1)C(N)=O [Tat, reference compound] | 0.9 | – |
| GIGKFLHSAKKFGKAFVGEIMNS-NH2 [Magainin, reference compound] | 8.2 | – |
| Cf-GIGKFLHSAKKFGKAFVGEIMNS [Cf-Transportan, 5(6)-carboxyfluorescein-labeled transportan] | – | Pearson's coefficient of colocalization with lysosomal staining (MonoMac-6 cells): 0.823 |
| TKPKGTKPKGTKPKGTKPKG-NH2 [OT20, reference compound] | 1.6 | – |
| Cf-AGYLLGKINLKALAALAKKIL [Cf-Penetratin, 5(6)-carboxyfluorescein-labeled penetratin] | – | Pearson's coefficient of colocalization with lysosomal staining (MonoMac-6 cells): 0.490 |
| Cf-RAGLQFPVGRVHRLLRK [Cf-Buforin, 5(6)-carboxyfluorescein-labeled buforin] | 7.7 | Rt (retention time), second peak [1]: 7.8 |
| RAGLQFPVGRVHRLLRK-NH2 [Buforin, reference compound] | 6.6 | – |
| YKQCHKKGGKKGSG-NH2 [Crot(1-9,38-42), reference compound] | 0.8 | – |
| CC[C@H](C)[C@H](NC(=O)[C@H](CCCCN)NC(=O)[C@@H](NC(=O)[C@H](CCC(N)=O)NC(=O)[C@@H](N)CCCNC(=N)N)[C@@H](C)CC)C(=O)N[C@@H](Cc1c[nH]c2ccccc12)C(=O)N[C@@H](Cc1ccccc1)C(=O)N[C@@H](CCC(N)=O)C(=O)N[C@@H](CC(N)=O)C(=O)N[C@@H](CCCNC(=N)N)C(=O)N[C@@H](CCCNC(=N)N)C(=O)N[C@@H](CCSC)C(=O)N[C@@H](CCCCN)C(=O)N[C@@H](Cc1c[nH]c2ccccc12)C(=O)N[C@@H](CCCCN)C(=O)N[C@@H](CCCCN)C(N)=O [Penetratin, reference compound] | 6.1 | penetration through CALU-1 monolayer and internalization into EBC-1 cells [2]: higher internalization rates |
| Cf-KWKLFKKIGAVLKVL [Cf-CM15, 5(6)-carboxyfluorescein-labeled CM15] | 9.6 | Pearson's coefficient of colocalization with lysosomal staining (MonoMac-6 cells): 0.358; Rt (retention time), second peak [1]: 9.7 |
| CC[C@H](C)[C@H](NC(=O)[C@H](CCCCN)NC(=O)[C@@H](NC(=O)[C@H](CCC(N)=O)NC(=O)[C@H](CCCNC(=N)N)NC(=O)CNNC(=O)c1ccncc1)[C@@H](C)CC)C(=O)N[C@@H](Cc1c[nH]c2ccccc12)C(=O)N[C@@H](Cc1ccccc1)C(=O)N[C@@H](CCC(N)=O)C(=O)N[C@@H](CC(N)=O)C(=O)N[C@@H](CCCNC(=N)N)C(=O)N[C@@H](CCCNC(=N)N)C(=O)N[C@@H](CCSC)C(=O)N[C@@H](CCCCN)C(=O)N[C@@H](Cc1c[nH]c2ccccc12)C(=O)N[C@@H](CCCCN)C(=O)N[C@@H](CCCCN)C(N)=O [INH-Penetratin] | – | peaks of the intact conjugates after 30 min of incubation ([3]; 0.2 M sodium acetate buffer pH 5.03, 0.025 µg/µl, 1:1 protein/peptide ratio): almost disappeared; most stable fragment (main peak after 24 h of incubation) ([3]; pH 5.03, 0.025 µg/µl): tetrapeptide (RQIK) with INH |
| Cf-YKQCHKKGGKKGSG [Cf-Crot(1-9,38-42), 5(6)-carboxyfluorescein-labeled Crot(1-9,38-42)] | 5.5 | Rt (retention time), second peak [1]: 5.8 |
| Cf-GIGAVLKVLTTGLPALISWIKRKRQQ [Cf-Melittin, 5(6)-carboxyfluorescein-labeled melittin] | 12.2 | – |
| CC[C@H](C)[C@H](NC(=O)[C@H](CCCCN)NC(=O)[C@H](CCCCN)NC(=O)[C@H](C)NC(=O)[C@H](CC(C)C)NC(=O)[C@H](C)NC(=O)[C@H](C)NC(=O)[C@H](CC(C)C)NC(=O)[C@H](C)NC(=O)[C@H](CCCCN)NC(=O)[C@H](CC(C)C)NC(=O)[C@H](CC(N)=O)NC(=O)[C@@H](NC(=O)[C@H](CCCCN)NC(=O)CNC(=O)[C@H](CC(C)C)NC(=O)[C@H](CC(C)C)NC(=O)[C@H](Cc1ccc(O)cc1)NC(=O)CNC(=O)[C@H](C)N)[C@@H](C)CC)C(=O)N[C@@H](CC(C)C)C(N)=O [reference compound] | 10.6 | – |
| Cf-YGRKKRRQRRR [Cf-Tat, 5(6)-carboxyfluorescein-labeled Tat] | 4.6 | Rt (retention time), second peak [1]: 5.0 |
| Cf-TKPKGTKPKGTKPKGTKPKG [Cf-OT20, 5(6)-carboxyfluorescein-labeled OT20] | 4.9 | Rt (retention time), second peak [1]: 5.0 |
| CC[C@H](C)[C@H](NC(=O)CN)C(=O)NCC(=O)N[C@@H](C)C(=O)N[C@H](C(=O)N[C@@H](CC(C)C)C(=O)N[C@@H](CCCCN)C(=O)N[C@H](C(=O)N[C@@H](CC(C)C)C(=O)N[C@H](C(=O)N[C@H](C(=O)NCC(=O)N[C@@H](CC(C)C)C(=O)N1CCC[C@H]1C(=O)N[C@@H](C)C(=O)N[C@@H](CC(C)C)C(=O)N[C@H](C(=O)N[C@@H](CO)C(=O)N[C@@H](Cc1c[nH]c2ccccc12)C(=O)N[C@H](C(=O)N[C@@H](CCCCN)C(=O)N[C@@H](CCCNC(=N)N)C(=O)N[C@@H](CCCCN)C(=O)N[C@@H](CCCNC(=N)N)C(=O)N[C@@H](CCC(N)=O)C(=O)N[C@@H](CCC(N)=O)C(N)=O)[C@@H](C)CC)[C@@H](C)CC)[C@@H](C)O)[C@@H](C)O)C(C)C)C(C)C [Melittin, reference compound] | 10.6 | – |
| KWKLFKKIGAVLKVL-NH2 [CM15, reference compound] | 8.4 | – |
